# Several values for one entry are separate records, joined by “and”; a condition that tells them apart may be missing. Equal values may be shown once.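 48-hour exposure; five concentrations; linearly interpolated endpoints. TGI denotes the concentration required for complete inhibition of growth.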
# Columns and labels:
# Test in all cases: NCI anticancer screen, dose series, 48 h
# [1] = test system: COLO 205 colon
# [2] = test system: HT29 colon
# [3] = test system: SNB-19 CNS
# [4] = test system: EKVX NSCLC
# [5] = test system: UACC-62 melanoma
# [6] = test system: T-47D breast
# [7] = test system: SW-620 colon
# [8] = test system: MDA-MB-435
# [9] = test system: K-562 leukemia
# [10] = test system: HCC-2998 colon
Compound,TGI [1],TGI [2],TGI [3],TGI [4],TGI [5],TGI [6],TGI [7],TGI [8],TGI [9],TGI [10]
C=CCCCN(C(=O)c1ccccc1)c1ccc(C(=O)OC)o1,> 100 µM,> 100 µM,> 100 µM,> 100 µM,> 100 µM,> 100 µM,,,,
Cc1ccc(N=Nc2c(O)ccc3ccccc23)c(C)c1,> 100 µM,> 100 µM,> 100 µM,,> 100 µM,> 100 µM,> 100 µM,> 100 µM,> 100 µM,
CC(C)(C)OC(=O)NCC(c1c[nH]c2ccccc12)c1c[nH]c2ccccc12,29.1 µM,29.8 µM,31.1 µM,26.2 µM,> 100 µM,36.5 µM,41 µM,31.7 µM,,
CCCCn1c(-c2ccccc2)cs/c1=N\NC(=O)Cn1c(C)nc2ccccc21,38.2 µM,> 100 µM,> 100 µM,> 100 µM,> 100 µM,,> 100 µM,,> 100 µM,> 100 µM
C/C(=N\Nc1nc2cc(F)ccc2s1)c1ccccn1,,3.33 µM,> 41.7 µM,,1.46 µM,> 100 µM,5.37 µM,> 100 µM,> 43.8 µM,
CSCSCC(CO)NC(=O)/C=C\c1c(C)[nH]c(=O)[nH]c1=O (stereo not given),78.9 µM,270 µM,197 µM,153 µM,197 µM,,207 µM,,111 µM,52.9 µM
COc1ccc(NCn2nc(CCCCCCCCc3nn(CNc4ccc(OC)cc4)c(=S)o3)oc2=S)cc1,> 100 µM,> 100 µM,> 100 µM,> 100 µM,> 100 µM,,> 100 µM,> 100 µM,> 100 µM,> 100 µM
O=C(O)C12C=CC(C1)c1ccccc12 (stereo not given),> 100 µM,> 100 µM,> 100 µM,,> 100 µM,,> 100 µM,,> 100 µM,> 100 µM
CC(C)(C1=NC(C(C)(C)C)CO1)C1=N[C@@H](C(C)(C)C)CO1 (stereo not given in full),> 100 µM,> 100 µM,> 100 µM,> 100 µM,> 100 µM,,> 100 µM,,> 100 µM,> 100 µM
COc1ccc(-c2csc3c2[N+]2(C)C=CC=C2C3N2CCCC2)cc1 (stereo not given),42.6 µM,43 µM,> 100 µM,> 100 µM,38.2 µM,76.1 µM,> 100 µM,59.5 µM,> 100 µM,
CCOC(=O)C1=C(N2CCCC2)C(=O)C(C(=O)OCC)C1 (stereo not given),> 100 µM,,> 100 µM,> 100 µM,,> 100 µM,> 100 µM,> 100 µM,> 100 µM,> 100 µM
Cc1c2cc[n+](C)cc2c(C)c2c1[nH]c1ccc(OCC(F)(F)F)cc12,,8.14 µM and > 55.1 µM,3.02 µM,82.9 µM,> 100 µM,,> 100 µM,,> 56.6 µM,34.5 µM and > 100 µM
CC12CC(c3ccccc3O1)C(C(=O)Nc1nccs1)C(=O)N2 (stereo not given),> 100 µM,> 100 µM,> 100 µM,90.7 µM,> 100 µM,,> 100 µM,> 100 µM,> 100 µM,> 100 µM
c1ccc(C2N=C(c3ccccn3)C(c3ccccn3)=NC2c2ccccc2)cc1 (stereo not given),> 100 µM,> 100 µM,> 100 µM,> 100 µM,> 100 µM,,> 100 µM,,> 100 µM,> 100 µM
C=C1C(=O)OC2C[C@@]3(C)CCCC(=C)C3CC12 (stereo not given in full),6.85 µM,24 µM,23.4 µM,31.5 µM,18.1 µM,,14.4 µM,,,26.7 µM
COc1ccc(/C=C/C(=O)c2cc(CN(C)C)c(O)c(CN(C)C)c2)cc1,32.5 µM,> 100 µM,> 100 µM,> 100 µM,,> 100 µM,> 100 µM,> 100 µM,70.7 µM,
C#CC(O)/C=C/C(O)CCCC(O)CC#CC(O)C#CCCCCC(O)/C=C/CCCC(=O)CCCCCCCCCCCCCCCC(O)C(O)C#CC(=O)O (stereo not given),> 25 µM,> 25 µM,> 25 µM,> 25 µM,> 25 µM,> 25 µM,,> 25 µM,> 25 µM,> 25 µM
COC(=O)c1c(CC(=O)OC(C)C)cc2n(c1=O)Cc1c-2nc2ccccc2c1OC,> 100 µM,> 100 µM,> 100 µM,> 100 µM,> 100 µM,,> 100 µM,,> 100 µM,> 100 µM
Cc1ccc(N2Cc3c(ccc4ccccc34)OP2(=S)N2CCCC2)cc1 (stereo not given),> 100 µM,> 100 µM,> 100 µM,> 100 µM,> 100 µM,,> 100 µM,,> 100 µM,> 100 µM

# Source: PubChem BioAssay (NCI)
